# According to PMC5867665, “Targeting Multiple Effector Pathways in Pancreatic Ductal Adenocarcinoma with a G-Quadruplex-Binding Small Molecule” (Journal of Medicinal Chemistry, 2018):
# System: PANC-1 cells
# Assay: BG4 and 53BP1 immunofluorescence microscopy
# Assay type: cell-based, human
# Text: Because many established G4-stabilizing ligands induce transcription and replication-coupled DNA damage in the vicinity of G4-forming sequences,[44] we investigated whether CM03 treatment affects cellular G4 occurrence and/or induces a DNA damage response. To do this, we treated asynchronous PANC-1 cells with CM03 and performed immunofluorescence staining using the G4-specific antibody BG4[18] and an antibody against the DNA damage and double-strand break (DSB) marker 53BP1[45] followed by 3D image construction and analysis. […] This further confirms that CM03 has a direct action at G4 sites to increase G4 stabilization. Consistent with the capability of unresolved endogenous genomic G4 sites[46] and small molecule-stabilized G4s to obstruct DNA replication,[44] a 2-fold increase in the number of 53BP1 foci was only apparent after 24 h treatment with CM03 (11 ± 2 compared to 21 ± 3 53BP1 foci) (Figure 4a,c). To determine if CM03 induced DNA damage directly at G4 sites, we calculated the extent of co-localization between BG4 and 53BP1 foci using object-based image co-localization analysis.
# BG4 and 53BP1 immunofluorescence experiments were performed essentially as described,[16],[18] with slight modifications. In brief, 8 × 10^4 PANC-1 cells were seeded overnight on circular no. 1.5 coverslips per well in 12-well plates. Next day, cells were incubated with 400 nM CM03 (or left untreated) in 1 mL of media at 37 °C for 6 and 24 h and then fixed with 4 (v/v) % freshly prepared paraformaldehyde in 1× PBS for 10 min at RT. Coverslips were washed 1× PBS, permeabilized with 0.1% (v/v) Triton-X100 in PBS for 10 min, washed with 1× PBS, and blocked with 2% (w/v) Marvel milk (Premier Foods plc) in PBS for 1 h at 37 °C. After blocking, coverslips were incubated with BG4 (20 nM) at 37 °C for 1 h, washed three times for 5 min with PBST (0.1% (v/v) Tween 20), and then incubated with 37 °C for 1 h with rabbit α-FLAG 1:800 (CST, catalogue no. 2368) and mouse α-53BP1 1:500 (Millipore, catalogue no. MAB2803). […] Fluorescence illumination was with a xenon source and FITC, Cy5, and DAPI fluorescent filter cubes used to image BG4, 53BP1, and the nuclei, respectively. […] See extended methods, immunofluorescence, for the custom protocol designed for the BG4-53BP1 foci quantification and co-localization method. […]
# For the putative G4 sequences (PQs) analysis, the occurrence of the canonical G4 motif (G≥3N1-7G≥3+N1-7G3≥N1-7G≥3), as previously defined 2,3, was calculated both in gene promoters (defined as 2 kilobases upstream of the transcription start site (TSS) and 100 bases downstream ) and gene bodies (exons and introns). […]
smiles,measurement,setting,value
"O=C1c2ccc3c4c(c(NCCN5CCCC5)cc(c24)C(=O)N1CCCN1CCOCC1)C(=O)N(CCCN1CCOCC1)C3=O [CM03, 2,7-bis(3-morpholinopropyl)-4-((2-(pyrrolidin-1-yl)ethyl)amino)benzo[lmn][3,8]phenanthroline-1,3,6,8(2H,7H)-tetraone]",number of nuclear BG4 foci,"400 nM CM03, 6 h",393 ± 13
same,number of 53BP1 foci,"400 nM CM03, 24 h",21 ± 3
same,number of nuclear BG4 foci,"400 nM CM03, 24 h",444 ± 39
same,total BG4 foci per nucleus associated with DNA damage foci,"400 nM CM03, 24 h",1.4%
